Data published in article PMC4156518 (Cell metabolism, 2014).

Columns and labels:
[1] = biological target: T1, UCP2 (murine, residues 14-309) (Mus musculus, UniProt P70406); assay: proteoliposome ASO− flipping assay; assay type: biochemical; settings: read-out: % inhibition at 100 μM
T1 sequence (P70406 14-309): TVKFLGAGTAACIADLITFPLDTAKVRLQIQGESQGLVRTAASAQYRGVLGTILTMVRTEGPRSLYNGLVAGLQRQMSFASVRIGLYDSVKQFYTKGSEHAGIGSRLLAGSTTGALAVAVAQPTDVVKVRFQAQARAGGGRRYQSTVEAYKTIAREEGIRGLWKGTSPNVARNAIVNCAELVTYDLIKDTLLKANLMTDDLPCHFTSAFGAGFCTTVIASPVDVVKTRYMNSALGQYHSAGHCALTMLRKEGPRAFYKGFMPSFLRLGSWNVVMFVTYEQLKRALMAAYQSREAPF

[2] = biological target: T1, UCP2 (murine, residues 14-309); assay: NMR titration, chemical shift perturbation; assay type: binding

| inhibition at 100 µM [1] [%] | Kd [2] [µM] | SMILES |
| --- | --- | --- |
| ~95 | – | Nc1nc2c(ncn2[C@@H]2O[C@H](COP(=O)(O)OP(=O)(O)O)[C@@H](O)[C@H]2O)c(=O)[nH]1 [GDP] |
| – | 600 ± 200 | CCCCCCCCCCCCCCCC(=O)O [C16-FA] |
